# Reference: PMC11785709, “Angelica gigas Nakai (Korean Dang-gui) Root Alcoholic Extracts in Health Promotion and Disease Therapy – active Phytochemicals and In Vivo Molecular Targets” (Pharmaceutical Research, 2025)
# Like-named read-outs stand apart in the source and are kept apart here.
# Assays:
# [1] = system: pentobarbital-induced sleeping behaviors; set-up: method as in PMID 28066138; conditions: cited from earlier work
# [2] = system: methicillin-resistant Staphylococcus aureus (MRSA) sepsis; set-up: method as in PMID 34681611; conditions: ip every other day 0.4, 2 and 10 mg/kg pre-treatment; cited from earlier work
# DSS-induced colitis = system: DSS-induced colitis; set-up: method as in PMID 30917627; conditions: ip every other day 0.4 and 4 mg/kg; cited from earlier work
# [3] = system: acute thermal pain models and CINP; set-up: method as in PMID 36249788; conditions: cited from earlier work
# CDK9 = CDK9 (Homo sapiens, UniProt P50750); assay: KINOMEscan competition binding; set-up: purchased Eurofins DiscoverX (KINOMEscan)
# Procedure: (§1) Two distinct platforms were used for initial screening with 50 µM DOH vs. DMSO vehicle. The first was the Eurofins DiscoverX KINOMEscan® (Freemont, CA USA) profiling platform, which employed a proprietary active site-directed competition binding assay to quantitatively measure interactions between a test compound (i.e., DOH) and 468 human protein kinases and disease relevant mutant variants either directly (sterically) or indirectly (allosterically) to prevent a kinase binding to its immobilized substrate (ligand). The top 8 hits were subjected to secondary screening verification by DOH concentration-titration for dissociation constant (Kd). For ROCK1 and ROCK2, DA was chosen for Kd titration as well, because it is ~ 10 × higher than D in peripheral circulation due to its resistance to hydrolysis by carboxyesterase-2 (Fig. 1C).
# AChE = system: AChE; set-up: method as in PMID 11374978; conditions: read-out: AChE inhibition IC50; cited from earlier work
# [4] = system: acetic acid-induced writhing; set-up: method as in PMID 19557373; conditions: cited from earlier work
# [5] = cited from earlier work
# GRK4 = target: T1, GRK4 (Homo sapiens, UniProt P32298); assay: KINOMEscan competition binding; conditions: initial screening, DOH 50 µM; read-out: Substrate bound % Control
# T1 construct: purchased Eurofins DiscoverX (KINOMEscan)
# Procedure: as §1
# YSK4 (MAP3K19) = target: T2, YSK4 (MAP3K19) (Homo sapiens, UniProt Q56UN5); assay: KINOMEscan competition binding; conditions: initial screening, DOH 50 µM; read-out: Substrate bound % Control
# T2 construct: purchased Eurofins DiscoverX (KINOMEscan)
# Procedure: as §1
# PIK3C2G = target: T3, PIK3C2G (Homo sapiens, UniProt O75747); assay: KINOMEscan competition binding; conditions: initial screening, DOH 50 µM; read-out: Substrate bound % Control
# T3 construct: purchased Eurofins DiscoverX (KINOMEscan)
# Procedure: as §1
# [6] = target: T4, JAK3(JH1domain-catalytic) (Homo sapiens, UniProt P52333); assay: KINOMEscan competition binding; conditions: initial screening, DOH 50 µM; read-out: Substrate bound % Control
# T4 construct: JAK3(JH1domain-catalytic); purchased Eurofins DiscoverX (KINOMEscan)
# Procedure: as §1
# RIOK1 = target: T5, RIOK1 (Homo sapiens, UniProt Q9BRS2); assay: KINOMEscan competition binding; conditions: initial screening, DOH 50 µM; read-out: Substrate bound % Control
# T5 construct: purchased Eurofins DiscoverX (KINOMEscan)
# Procedure: as §1
# CDC2L1 (CDK11B) = target: T6, CDC2L1 (CDK11B) (Homo sapiens, UniProt P21127); assay: KINOMEscan competition binding
# T6 construct: purchased Eurofins DiscoverX (KINOMEscan)
# Procedure: as §1
# PIK3CG = target: T7, PIK3CG (Homo sapiens, UniProt P48736); assay: KINOMEscan competition binding; conditions: initial screening, DOH 50 µM; read-out: Substrate bound % Control
# T7 construct: purchased Eurofins DiscoverX (KINOMEscan)
# Procedure: as §1
# SRPK3 = target: T8, SRPK3 (Homo sapiens, UniProt Q9UPE1); assay: KINOMEscan competition binding; conditions: initial screening, DOH 50 µM; read-out: Substrate bound % Control
# T8 construct: purchased Eurofins DiscoverX (KINOMEscan)
# Procedure: as §1
# LKB1 (STK11) = target: T9, LKB1 (STK11) (Homo sapiens, UniProt Q15831); assay: KINOMEscan competition binding
# T9 construct: purchased Eurofins DiscoverX (KINOMEscan)
# Procedure: as §1
# DYRK1B = target: T10, DYRK1B (Homo sapiens, UniProt Q9Y463); assay: KINOMEscan competition binding; conditions: initial screening, DOH 50 µM; read-out: Substrate bound % Control
# T10 construct: purchased Eurofins DiscoverX (KINOMEscan)
# Procedure: as §1
# ERK4 (MAPK4) = target: T11, ERK4 (MAPK4) (Homo sapiens, UniProt P31152); assay: KINOMEscan competition binding
# T11 construct: purchased Eurofins DiscoverX (KINOMEscan)
# Procedure: as §1
# [7] = target: T12, JAK2(JH1domain-catalytic) (Homo sapiens, UniProt O60674); assay: KINOMEscan competition binding; conditions: initial screening, DOH 50 µM; read-out: Substrate bound % Control
# T12 construct: JAK2(JH1domain-catalytic); purchased Eurofins DiscoverX (KINOMEscan)
# Procedure: as §1
# BIKE (BMP2K) = target: T13, BIKE (BMP2K) (Homo sapiens, UniProt Q9NSY1); assay: KINOMEscan competition binding; conditions: initial screening, DOH 50 µM; read-out: Substrate bound % Control
# T13 construct: purchased Eurofins DiscoverX (KINOMEscan)
# Procedure: as §1
# PIP5K1A = target: T14, PIP5K1A (Homo sapiens, UniProt Q99755); assay: KINOMEscan competition binding; conditions: initial screening, DOH 50 µM; read-out: Substrate bound % Control
# T14 construct: purchased Eurofins DiscoverX (KINOMEscan)
# Procedure: as §1
# acute pain models = system: acute pain models; set-up: method as in PMID 12759141; conditions: cited from earlier work
# [8] = read-out: Substrate bound % Control
# [9] = validation Kd titration, 0.003 to 50 µM
# T6 sequence (P21127 whole entry): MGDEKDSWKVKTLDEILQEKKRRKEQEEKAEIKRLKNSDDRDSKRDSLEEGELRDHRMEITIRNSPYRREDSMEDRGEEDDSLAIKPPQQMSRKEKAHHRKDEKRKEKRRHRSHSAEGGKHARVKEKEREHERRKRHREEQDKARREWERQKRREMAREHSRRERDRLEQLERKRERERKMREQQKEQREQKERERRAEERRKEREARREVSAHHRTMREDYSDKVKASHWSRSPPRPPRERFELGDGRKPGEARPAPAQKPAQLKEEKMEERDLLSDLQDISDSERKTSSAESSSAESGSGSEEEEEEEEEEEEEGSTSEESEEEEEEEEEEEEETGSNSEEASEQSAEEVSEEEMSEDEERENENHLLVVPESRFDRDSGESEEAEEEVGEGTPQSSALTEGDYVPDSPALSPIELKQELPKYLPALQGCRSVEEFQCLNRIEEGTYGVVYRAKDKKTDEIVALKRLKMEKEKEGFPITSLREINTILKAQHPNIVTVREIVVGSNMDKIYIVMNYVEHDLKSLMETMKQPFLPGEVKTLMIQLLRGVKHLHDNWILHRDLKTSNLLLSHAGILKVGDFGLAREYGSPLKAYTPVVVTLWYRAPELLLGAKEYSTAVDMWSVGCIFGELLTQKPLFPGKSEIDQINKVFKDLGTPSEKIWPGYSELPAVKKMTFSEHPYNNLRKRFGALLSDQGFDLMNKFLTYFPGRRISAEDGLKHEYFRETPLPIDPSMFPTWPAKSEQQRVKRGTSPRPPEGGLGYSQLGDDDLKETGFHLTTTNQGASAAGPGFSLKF
# Sequence of CDK9 (P50750 whole entry): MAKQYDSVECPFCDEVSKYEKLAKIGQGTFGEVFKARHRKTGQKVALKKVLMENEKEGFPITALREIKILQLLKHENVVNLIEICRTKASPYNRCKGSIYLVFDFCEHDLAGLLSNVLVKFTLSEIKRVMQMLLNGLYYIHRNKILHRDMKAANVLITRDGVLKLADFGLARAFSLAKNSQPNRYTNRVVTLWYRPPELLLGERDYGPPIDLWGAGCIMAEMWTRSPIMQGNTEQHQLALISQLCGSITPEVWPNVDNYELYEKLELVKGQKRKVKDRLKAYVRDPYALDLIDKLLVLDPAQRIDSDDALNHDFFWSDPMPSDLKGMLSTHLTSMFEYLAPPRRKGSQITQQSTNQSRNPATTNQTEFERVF
# T11 sequence (P31152 whole entry): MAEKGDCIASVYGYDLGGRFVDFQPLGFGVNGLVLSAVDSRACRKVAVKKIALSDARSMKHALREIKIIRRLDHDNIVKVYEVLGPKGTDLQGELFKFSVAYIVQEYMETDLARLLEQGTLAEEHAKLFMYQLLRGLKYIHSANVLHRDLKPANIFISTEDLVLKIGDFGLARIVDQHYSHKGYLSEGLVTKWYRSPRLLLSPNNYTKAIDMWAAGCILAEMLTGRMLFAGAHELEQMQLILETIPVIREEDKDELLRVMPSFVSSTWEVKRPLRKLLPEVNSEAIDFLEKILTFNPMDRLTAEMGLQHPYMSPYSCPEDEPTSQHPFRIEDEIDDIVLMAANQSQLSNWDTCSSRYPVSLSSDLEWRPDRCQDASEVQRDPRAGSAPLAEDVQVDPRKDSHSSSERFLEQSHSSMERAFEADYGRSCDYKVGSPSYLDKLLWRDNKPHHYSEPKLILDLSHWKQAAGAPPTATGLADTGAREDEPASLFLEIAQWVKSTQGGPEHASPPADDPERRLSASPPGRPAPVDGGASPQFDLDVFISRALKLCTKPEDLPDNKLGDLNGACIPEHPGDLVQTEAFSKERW
# T9 sequence (Q15831 whole entry): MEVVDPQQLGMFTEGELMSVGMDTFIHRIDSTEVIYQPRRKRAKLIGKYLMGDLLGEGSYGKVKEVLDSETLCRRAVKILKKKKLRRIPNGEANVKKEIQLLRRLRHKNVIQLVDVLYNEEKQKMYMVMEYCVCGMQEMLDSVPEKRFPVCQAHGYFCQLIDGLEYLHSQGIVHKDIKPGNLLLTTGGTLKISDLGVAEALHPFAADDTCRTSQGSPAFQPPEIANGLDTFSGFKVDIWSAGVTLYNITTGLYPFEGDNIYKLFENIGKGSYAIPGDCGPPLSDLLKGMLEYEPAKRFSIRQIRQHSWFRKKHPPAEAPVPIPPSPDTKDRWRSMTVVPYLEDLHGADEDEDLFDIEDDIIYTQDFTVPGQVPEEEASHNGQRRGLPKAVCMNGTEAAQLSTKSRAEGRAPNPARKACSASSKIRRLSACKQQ
# T4 sequence (P52333 822-1111 limits assumed): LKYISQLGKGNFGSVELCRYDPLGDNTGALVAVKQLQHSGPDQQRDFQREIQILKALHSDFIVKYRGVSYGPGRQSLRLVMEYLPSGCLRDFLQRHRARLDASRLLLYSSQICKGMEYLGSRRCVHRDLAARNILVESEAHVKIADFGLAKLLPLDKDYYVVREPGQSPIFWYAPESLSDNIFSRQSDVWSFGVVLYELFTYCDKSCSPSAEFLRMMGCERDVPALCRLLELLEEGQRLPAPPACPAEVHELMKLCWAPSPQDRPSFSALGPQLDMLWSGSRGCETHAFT
# T1 sequence (P32298 whole entry): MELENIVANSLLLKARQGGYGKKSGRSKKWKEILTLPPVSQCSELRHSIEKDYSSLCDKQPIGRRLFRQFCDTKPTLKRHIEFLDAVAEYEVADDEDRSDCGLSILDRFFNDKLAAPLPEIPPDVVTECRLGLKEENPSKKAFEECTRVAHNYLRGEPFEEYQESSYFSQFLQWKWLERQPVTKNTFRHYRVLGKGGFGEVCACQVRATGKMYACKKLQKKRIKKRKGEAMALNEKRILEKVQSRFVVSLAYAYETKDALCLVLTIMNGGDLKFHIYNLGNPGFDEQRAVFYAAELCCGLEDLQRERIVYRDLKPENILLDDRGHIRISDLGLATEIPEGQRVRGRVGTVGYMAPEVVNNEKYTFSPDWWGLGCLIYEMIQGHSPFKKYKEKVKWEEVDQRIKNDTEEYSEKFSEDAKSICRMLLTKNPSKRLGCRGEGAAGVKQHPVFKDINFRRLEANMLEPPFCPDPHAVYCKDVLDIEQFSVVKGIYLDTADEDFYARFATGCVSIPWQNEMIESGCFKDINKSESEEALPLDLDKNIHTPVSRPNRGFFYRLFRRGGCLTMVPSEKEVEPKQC
# T13 sequence (Q9NSY1 whole entry): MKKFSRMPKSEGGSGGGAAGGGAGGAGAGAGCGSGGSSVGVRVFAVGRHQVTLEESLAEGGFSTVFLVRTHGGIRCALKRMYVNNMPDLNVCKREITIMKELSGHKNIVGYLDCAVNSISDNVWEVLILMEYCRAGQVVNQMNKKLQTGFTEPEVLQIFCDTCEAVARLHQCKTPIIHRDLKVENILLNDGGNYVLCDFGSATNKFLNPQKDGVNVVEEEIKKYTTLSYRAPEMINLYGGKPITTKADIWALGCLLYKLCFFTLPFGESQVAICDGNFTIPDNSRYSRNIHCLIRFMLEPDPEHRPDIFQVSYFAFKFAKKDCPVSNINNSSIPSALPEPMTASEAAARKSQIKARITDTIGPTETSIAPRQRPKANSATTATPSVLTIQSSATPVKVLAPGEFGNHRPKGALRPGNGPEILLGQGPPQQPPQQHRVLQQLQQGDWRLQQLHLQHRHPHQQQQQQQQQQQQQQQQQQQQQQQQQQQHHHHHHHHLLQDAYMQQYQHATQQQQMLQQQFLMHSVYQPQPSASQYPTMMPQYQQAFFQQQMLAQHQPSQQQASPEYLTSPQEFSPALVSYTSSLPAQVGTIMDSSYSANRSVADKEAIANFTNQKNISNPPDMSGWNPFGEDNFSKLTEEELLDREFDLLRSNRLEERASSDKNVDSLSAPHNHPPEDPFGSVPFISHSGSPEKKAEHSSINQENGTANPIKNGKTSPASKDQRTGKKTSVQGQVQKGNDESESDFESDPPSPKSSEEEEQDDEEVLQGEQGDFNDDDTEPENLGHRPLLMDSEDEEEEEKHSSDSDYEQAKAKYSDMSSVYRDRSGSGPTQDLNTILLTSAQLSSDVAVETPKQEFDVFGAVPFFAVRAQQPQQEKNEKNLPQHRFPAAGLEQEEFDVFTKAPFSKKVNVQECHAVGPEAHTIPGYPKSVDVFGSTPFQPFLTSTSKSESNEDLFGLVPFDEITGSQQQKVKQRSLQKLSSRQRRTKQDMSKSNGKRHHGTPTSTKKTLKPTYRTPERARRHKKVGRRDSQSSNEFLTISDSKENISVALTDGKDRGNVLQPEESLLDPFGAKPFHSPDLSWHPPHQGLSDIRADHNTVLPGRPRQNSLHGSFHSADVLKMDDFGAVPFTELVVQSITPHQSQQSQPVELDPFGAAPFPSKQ
# T5 sequence (Q9BRS2 whole entry): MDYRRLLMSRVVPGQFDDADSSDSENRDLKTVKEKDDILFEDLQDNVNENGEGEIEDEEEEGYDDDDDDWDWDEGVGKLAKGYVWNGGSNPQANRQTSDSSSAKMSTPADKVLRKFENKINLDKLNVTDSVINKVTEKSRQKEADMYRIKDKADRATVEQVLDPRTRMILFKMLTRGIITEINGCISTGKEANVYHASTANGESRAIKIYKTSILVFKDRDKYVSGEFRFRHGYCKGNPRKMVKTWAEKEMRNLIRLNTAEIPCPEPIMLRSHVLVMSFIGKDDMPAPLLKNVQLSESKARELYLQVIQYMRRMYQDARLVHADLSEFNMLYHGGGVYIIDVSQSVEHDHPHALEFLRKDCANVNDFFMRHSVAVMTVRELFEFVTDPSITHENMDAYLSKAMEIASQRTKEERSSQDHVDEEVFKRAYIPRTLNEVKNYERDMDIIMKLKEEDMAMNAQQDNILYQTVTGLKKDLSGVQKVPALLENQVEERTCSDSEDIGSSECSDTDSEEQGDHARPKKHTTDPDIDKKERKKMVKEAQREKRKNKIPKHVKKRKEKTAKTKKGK
structure (smiles),measurement,setting,value
"C/C=C(/C)C(=O)O[C@H]1Cc2cc3ccc(=O)oc3cc2OC1(C)C [DA, decursinol angelate]",sleeping time by pentobarbital (42 mg/kg),[1]; dose-dependent,prolonged sleeping time
same,spontaneous locomotor activity,"[1]; oral DA 10, 25 and 50 mg/kg",markedly suppressed spontaneous locomotor activity
same,mouse mortality and bacteremia,[2],dose-dependent decrease of mouse mortality
same,severity of colitis,DSS-induced colitis,attenuated the severity of colitis
"CC1(C)Oc2cc3oc(=O)ccc3cc2C[C@@H]1O [DOH, decursinol]",hypothermia and sedation (ataxia),[3],dose dependent hypothermia
same,antinociception in hot plate and tail-flick assays,[3]; ip DOH 50 mg/kg,replicated antinociception effects
same,mechanical allodynia of mice with cisplatin-neuropathy (Von Fry test),[3]; ip DOH 50 mg/kg,reversed the mechanical allodynia
same,time to tolerance development,"[3]; once-daily ip, hot plate, tail-flick and CINP mice",~ 10 days
same,"kinase bound, % of control at 50 µM",CDK9; [8],12%
same,Kd,CDK9; [9],> 50 µM
same,IC50,AChE,28 µM
same,analgesic effect,[4]; oral 50 mg/kg,efficacious
same,analgesic effect,[4]; oral 25 or 10 mg/kg,not at 25 or 10 mg/kg
same,AUCDOH/AUCtotal,[5]; conversion of D and DA to DOH,98.7%
same,Cmax,"[5]; read-out: mean peak concentration Cmax, 10 men and 10 women, 800 mg INM176 AGN oral",2480 nM
same,remaining binding at 50 µM,GRK4,47%
same,remaining binding at 50 µM,YSK4 (MAP3K19),34%
same,remaining binding at 50 µM,PIK3C2G,32%
same,remaining binding at 50 µM,[6],45%
same,remaining binding at 50 µM,RIOK1,50%
same,remaining binding at 50 µM,CDC2L1 (CDK11B); [8],19%
same,Kd,CDC2L1 (CDK11B); [9],> 50 µM
same,remaining binding at 50 µM,PIK3CG,46%
same,remaining binding at 50 µM,SRPK3,45%
same,remaining binding at 50 µM,LKB1 (STK11); [8],7.6%
same,Kd,LKB1 (STK11); [9],> 50 µM
same,remaining binding at 50 µM,DYRK1B,28%
same,remaining binding at 50 µM,ERK4 (MAPK4); [8],3.3%
same,Kd,ERK4 (MAPK4); [9],> 50 µM
same,remaining binding at 50 µM,[7],49%
same,remaining binding at 50 µM,BIKE (BMP2K),45%
same,remaining binding at 50 µM,PIP5K1A,47%
same,anti-nociceptive ED50,acute pain models; gavaged DOH 5 to 200 mg/kg,~ 50 mg/kg
same,peak time of anti-nociceptive efficacy,acute pain models; post dose,30 min
